Laboratory results published in US10945992B1, “Dosage forms of rofecoxib and related methods” (Tremeau Pharmaceuticals, Inc., priority 2019, dated 2021).
Like-named read-outs stand apart in the source and are kept apart here.

Assay: TRM-201-PK-102 single-dose four-period crossover pharmacokinetic study, fasted healthy subjects
Format: in vivo, human
Settings: human, plasma, oral; for Cmax / AUC(0-inf): 102 study
Protocol: A Single-Dose, Open-Label, Phase 1, Four-Period Crossover Pharmacokinetic Study of TRM-201 (Rofecoxib) 12.5 mg, 17.5 mg, 20 mg and 25 mg Administered to Healthy Subjects in a Fasting State, with Comparison to Historical Pharmacokinetic Parameters of Previously Marketed Rofecoxib (“TRM-201-PK-102” or “102 PK Study”)
This was a single-center, open-label four-period crossover PK study of TRM-201. The study included 24 subjects who received TRM-201 as a single dose of 12.5 mg, 17.5 mg, 20 mg and 25 mg to assess the PK of TRM-201 in healthy volunteers under fasted conditions. Subjects were randomized to one of four treatment sequences. The PK data from the current study along with the data from the TRM-201-PK-101 study (Example 4) was used to compare to historical pharmacokinetic parameters of previously marketed rofecoxib, all in a fasted state.
In each of the four dosing periods, subjects fasted overnight for at least 10 hours before study drug dosing. While fasting, subjects had nothing to eat and only water to drink. Water was permitted as desired, except for the period between 1 hour before and 1 hour after study drug dosing (excepting as permitted for dosing). After the 2-hour PK blood sample, subjects were allowed one 250-mL cup of clear apple juice. After the 4-hour PK blood sample, subjects were served a light lunch. Following the light lunch, subjects received standardized meals according to the clinic's standard procedures that were scheduled at consistent times and at least 15 minutes before or 15 minutes after PK sampling time points. Blood was withdrawn for PK analysis at predefined time points. For each dosing period the last time point was 120 hours after dosing with study drug (Day 6). After the 120 hour PK sample, the EOP procedures was completed, subjects remained in-clinic for the in-between dose period day (Days 7, 14, and 21) and began the next dosing period starting with an overnight fast for at least 10 hours on Day −1 of the subsequent dosing period. Pharmacokinetic and safety endpoints were evaluated.
The study drug, TRM-201, was an immediate-release tablet that contained 12.5 mg rofecoxib, 17.5 mg rofecoxib, 20 mg rofecoxib or 25 mg rofecoxib. The 7.25-mm diameter tablets were off-white, round, and uncoated with no markings. TRM-201 tablets were for oral administration.
For each sample, approximately 3 mL of blood were drawn. The samples were obtained by a straight stick or via an in-dwelling intravenous (IV) catheter in a forearm vein. Additional details for the collection, processing, storage, and shipping of PK samples were provided in the study manual.
Pharmacokinetic samples will be analyzed using a validated assay for rofecoxib in human plasma. Assay results and validation details will be provided in a separate bioanalytical report. The following PK parameters for rofecoxib will be calculated as primary endpoints using standard noncompartmental methods: AUC0-∞ and Cmax. Secondary endpoints include Tmax, and t1/2. Additional PK parameters (e.g., CL/F, and Vd/F) will also be calculated using standard noncompartmental methods.
Individual plasma concentrations for rofecoxib and PK sampling time deviation data will be presented in a data listing. Plasma concentration data will be summarized by time point using the following descriptive statistics: number of subjects, arithmetic mean, SD, coefficient of variation (CV), geometric mean, natural-log-scale SD, geometric CV, median, minimum, and maximum. Individual plasma concentration versus actual time profiles were presented on both linear and semilogarithmic scales. Additionally, arithmetic mean concentration versus scheduled time profiles were presented on linear scales and geometric means on semilogarithmic scales.
The PK parameters of rofecoxib were analyzed based on the actual sampling times. […]

[1] = 25 mg, read-out: arithmetic mean plasma concentration
[2] = 25 mg, read-out: geometric mean plasma concentration

Which results are given for `CS(=O)(=O)c1ccc(C2=C(c3ccccc3)C(=O)OC2)cc1` [TRM-201, 4-[4-(methylsulfonyl)phenyl]-3-phenyl-2(5H)-furanone]?
Cmax (25 mg, 41-52 years, read-out: arithmetic mean Cmax): 326 ng/mL; AUC(0-inf) (25 mg, 41-52 years, read-out: geometric mean AUC0-∞): 4580 ng·h/mL; Cmax (25 mg, 41-52 years, read-out: geometric mean Cmax): 321 ng/mL; AUC(0-inf) (25 mg, 53-60 years, read-out: arithmetic mean AUC0-∞): 4940 ng·h/mL; Cmax (25 mg, 53-60 years, read-out: arithmetic mean Cmax): 354 ng/mL; AUC(0-inf) (25 mg, 53-60 years, read-out: geometric mean AUC0-∞): 4880 ng·h/mL; Cmax (25 mg, 53-60 years, read-out: geometric mean Cmax): 347 ng/mL; AUC(0-inf) (25 mg, Black or African-American subjects, read-out: arithmetic mean AUC0-∞): 3990 ng·h/mL; Cmax (25 mg, Black or African-American subjects, read-out: arithmetic mean Cmax): 340 ng/mL; AUC(0-inf) (25 mg, Black or African-American subjects, read-out: geometric mean AUC0-∞): 3940 ng·h/mL; Cmax (25 mg, Black or African-American subjects, read-out: geometric mean Cmax): 339 ng/mL; AUC(0-inf) (25 mg, Hispanic or Latino subjects, read-out: arithmetic mean AUC0-∞): 4980 ng·h/mL; Cmax (25 mg, Hispanic or Latino subjects, read-out: arithmetic mean Cmax): 358 ng/mL; AUC(0-inf) (25 mg, Hispanic or Latino subjects, read-out: geometric mean AUC0-∞): 4870 ng·h/mL; Cmax (25 mg, Hispanic or Latino subjects, read-out: geometric mean Cmax): 351 ng/mL; AUC(0-inf) (25 mg, White subjects, read-out: arithmetic mean AUC0-∞): 4800 ng·h/mL; Cmax (25 mg, White subjects, read-out: arithmetic mean Cmax): 351 ng/mL; AUC(0-inf) (25 mg, White subjects, read-out: geometric mean AUC0-∞): 4650 ng·h/mL; Cmax (25 mg, White subjects, read-out: geometric mean Cmax): 341 ng/mL; AUC(0-inf) (25 mg, body weight 47-70 kg, read-out: arithmetic mean AUC0-∞): 4450 ng·h/mL; Cmax (25 mg, body weight 47-70 kg, read-out: arithmetic mean Cmax): 385 ng/mL; AUC(0-inf) (25 mg, body weight 47-70 kg, read-out: geometric mean AUC0-∞): 4310 ng·h/mL; Cmax (25 mg, body weight 47-70 kg, read-out: geometric mean Cmax): 376 ng/mL; AUC(0-inf) (25 mg, body weight 70.1-77 kg, read-out: arithmetic mean AUC0-∞): 5470 ng·h/mL; Cmax (25 mg, body weight 70.1-77 kg, read-out: arithmetic mean Cmax): 371 ng/mL; AUC(0-inf) (25 mg, body weight 70.1-77 kg, read-out: geometric mean AUC0-∞): 5410 ng·h/mL; Cmax (25 mg, body weight 70.1-77 kg, read-out: geometric mean Cmax): 368 ng/mL; AUC(0-inf) (25 mg, body weight 77.1-90 kg, read-out: arithmetic mean AUC0-∞): 4130 ng·h/mL; Cmax (25 mg, body weight 77.1-90 kg, read-out: arithmetic mean Cmax): 299 ng/mL; AUC(0-inf) (25 mg, body weight 77.1-90 kg, read-out: geometric mean AUC0-∞): 4040 ng·h/mL; Cmax (25 mg, body weight 77.1-90 kg, read-out: geometric mean Cmax): 294 ng/mL; AUC(0-inf) (25 mg, non-Hispanic or non-Latino subjects, read-out: arithmetic mean AUC0-∞): 4280 ng·h/mL; Cmax (25 mg, non-Hispanic or non-Latino subjects, read-out: arithmetic mean Cmax): 340 ng/mL; AUC(0-inf) (25 mg, non-Hispanic or non-Latino subjects, read-out: geometric mean AUC0-∞): 4150 ng·h/mL; Cmax (25 mg, non-Hispanic or non-Latino subjects, read-out: geometric mean Cmax): 331 ng/mL; concentration at 15 minutes [1]: 5.63 ng/mL; concentration at 15 minutes [2]: 1.37 ng/mL; concentration at 45 minutes [1]: 159 ng/mL; concentration at 45 minutes [2]: 97.6 ng/mL; AUC(0-inf) (male, 12.5 mg, males, read-out: arithmetic mean AUC0-∞): 1750 ng·h/mL; Cmax (male, 12.5 mg, males, read-out: arithmetic mean Cmax): 132 ng/mL; AUC(0-inf) (male, 12.5 mg, males, read-out: geometric mean AUC0-∞): 1580 ng·h/mL; Cmax (male, 12.5 mg, males, read-out: geometric mean Cmax): 127 ng/mL; AUC(0-inf) (male, 17.5 mg, males, read-out: arithmetic mean AUC0-∞): 2860 ng·h/mL; Cmax (male, 17.5 mg, males, read-out: arithmetic mean Cmax): 201 ng/mL; AUC(0-inf) (male, 17.5 mg, males, read-out: geometric mean AUC0-∞): 2710 ng·h/mL; Cmax (male, 17.5 mg, males, read-out: geometric mean Cmax): 196 ng/mL; AUC(0-inf) (male, 20 mg, males, read-out: arithmetic mean AUC0-∞): 3130 ng·h/mL; Cmax (male, 20 mg, males, read-out: arithmetic mean Cmax): 234 ng/mL; AUC(0-inf) (male, 20 mg, males, read-out: geometric mean AUC0-∞): 2940 ng·h/mL; Cmax (male, 20 mg, males, read-out: geometric mean Cmax): 224 ng/mL; AUC(0-inf) (male, 25 mg, males, read-out: arithmetic mean AUC0-∞): 4080 ng·h/mL; Cmax (male, 25 mg, males, read-out: arithmetic mean Cmax): 302 ng/mL; AUC(0-inf) (male, 25 mg, males, read-out: geometric mean AUC0-∞): 3940 ng·h/mL; Cmax (male, 25 mg, males, read-out: geometric mean Cmax): 298 ng/mL; AUC(0-inf) (male, 25 mg, printed 'For males' (second statement, after the females' arithmetic means), read-out: geometric mean AUC0-∞): 5020 ng·h/mL; Cmax (male, 25 mg, printed 'For males' (second statement, after the females' arithmetic means), read-out: geometric mean Cmax): 382 ng/mL
